EC50 data for 28 molecules are collected here from US8785488B2 (Exelixis Patent Company LLC, priority 2009, dated 2014).

pEC50: −log10 of the molar value.

The test deals with T1, human TGR5 (h-TGR5) (Homo sapiens, UniProt Q8TDU6).
T1 construct: expressed in transfected cells
T1 sequence (Q8TDU6 1-330): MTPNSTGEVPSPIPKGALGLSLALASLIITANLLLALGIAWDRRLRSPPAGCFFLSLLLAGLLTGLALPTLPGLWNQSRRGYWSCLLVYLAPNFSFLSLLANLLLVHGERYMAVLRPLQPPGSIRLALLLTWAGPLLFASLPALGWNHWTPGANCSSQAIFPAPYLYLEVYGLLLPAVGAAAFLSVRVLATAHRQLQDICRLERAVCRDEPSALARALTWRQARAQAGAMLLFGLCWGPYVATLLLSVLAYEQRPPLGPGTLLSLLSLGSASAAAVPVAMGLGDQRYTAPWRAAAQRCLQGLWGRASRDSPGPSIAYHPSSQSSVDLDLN
Put plainly: TGR5/CRE-Luciferiase Assay (HEK 293 hTGR5/CRE-Luc cells). The format is cell-based. To be noted: h-TGR5 CRE-Luc EC50, Table 1; read-out: CRE-Luc (EC50). In outline:
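HEK293 cells stably carrying hTGR5 and a CRE-luciferase reporter were exposed to serially diluted compounds (diluted in DMEM with 5% DMSO) for 6 h. Cells were then lysed in luciferase buffer, luminescence was read, and EC50 values were derived from dose-response curves.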

What is called pEC50 is the negative decadic logarithm of the EC50, by convention in mol/L. Consider `CC(C)(c1ccc(Cl)c(Cl)c1)c1cnc(COc2ccc(-c3nn[nH]n3)cc2Cl)n1-c1ccc(F)cc1` [5-{3-chloro-4-[({5-[1-(3,4-dichlorophenyl)-1-methylethyl]-1-(4-fluorophenyl)-1H-imidazol-2-yl}methyl)oxy]phenyl}-2H-tetrazole], for which the pEC50 was 5.00 to 6.00.

Turning to `CC(C)(c1ccc(Cl)c(Cl)c1)c1cnc(SCc2c(F)cccc2CO)n1-c1ccc(F)cc1` [{2-[({5-[1-(3,4-dichlorophenyl)-1-methylethyl]-1-(4-fluorophenyl)-1H-imidazol-2-yl}thio)methyl]-3-fluorophenyl}methanol], the pEC50 is 6.00 to 7.00.

`CC(C)(c1ccc(NS(C)(=O)=O)cc1)c1cnc(SCc2c(F)cccc2Cl)n1-c1ccc(F)cc1` [N-(4-{1-[2-{[(2-chloro-6-fluorophenyl)methyl]thio}-1-(4-fluorophenyl)-1H-imidazol-5-yl]-1-methylethyl}phenyl)methanesulfonamide]: the pEC50 was 6.00 to 7.00.

As for `CC(C)(c1ccc(Cl)c(Cl)c1)c1cnc(SCc2c(F)cc(C(=O)O)cc2F)n1-c1ccc(F)c(CO)c1` [4-[({5-[1-(3,4-dichlorophenyl)-1-methylethyl]-1-[4-fluoro-3-(hydroxymethyl)phenyl]-1H-imidazol-2-yl}thio)methyl]-3,5-difluorobenzoic acid], the pEC50 was 6.00 to 7.00.

In the case of `CC(C)(c1ccc(Cl)c(O)c1)c1cnc(SCc2c(F)cc(C(=O)O)cc2F)n1-c1ccc(F)cc1` [4-[({5-[1-(4-chloro-3-hydroxyphenyl)-1-methylethyl]-1-(4-fluorophenyl)-1H-imidazol-2-yl}thio)methyl]-3,5-difluorobenzoic acid], the pEC50 was 6.00 to 7.00.

On to `CCN(CC)CCOc1ccc(CSc2ncc(C(C)(C)c3ccc(Cl)c(Cl)c3)n2-c2ccc(F)cc2)cc1-c1nnn[nH]1` [2-({4-[({5-[1-(3,4-dichlorophenyl)-1-methylethyl]-1-(4-fluorophenyl)-1H-imidazol-2-yl}thio)methyl]-2-(1H-tetrazol-5-yl)phenyl}oxy)-N,N-diethylethanamine], for which the pEC50 is 6.00 to 7.00.

`CC(C)(c1ccc(F)c(F)c1)c1cnc(SCc2ccc(C(=O)O)cc2F)n1-c1ccc(F)cc1` [4-[({5-[1-(3,4-difluorophenyl)-1-methylethyl]-1-(4-fluorophenyl)-1H-imidazol-2-yl}thio)methyl]-3-fluorobenzoic acid]: the pEC50 was 6.00 to 7.00.

As for `CC(C)(c1ccc(Cl)c(Cl)c1)c1cnc(S(=O)(=O)Cc2ccc(Cl)c(Cl)c2)n1-c1ccc(F)cc1` [5-[1-(3,4-dichlorophenyl)-1-methylethyl]-2-{[(3,4-dichlorophenyl)methyl]sulfonyl}-1-(4-fluorophenyl)-1H-imidazole], the pEC50 is 5.00 to 6.00.

Take `CC(C)(c1ccc(Cl)c(Cl)c1)c1cnc(SCc2ccc(C(N)=O)cc2F)n1-c1ccc(F)cc1` [4-[({5-[1-(3,4-dichlorophenyl)-1-methylethyl]-1-(4-fluorophenyl)-1H-imidazol-2-yl}thio)methyl]-3-fluorobenzamide]: the pEC50 was 6.00 to 7.00.

On to `CC(C)(c1ccc(Cl)c(Cl)c1)c1cnc(SCc2ccc(C(=N)N)cc2Cl)n1-c1ccc(F)cc1` [3-chloro-4-[({5-[1-(3,4-dichlorophenyl)-1-methylethyl]-1-(4-fluorophenyl)-1H-imidazol-2-yl}thio)methyl]benzenecarboximidamide], for which the pEC50 was 6.00 to 7.00.

Consider `COc1ccc(C(C)(C)c2cnc(C(=O)Nc3ccc(F)c(Cl)c3)n2-c2ccc(F)cc2)cc1OC` [5-{1-[3,4-bis(methyloxy)phenyl]-1-methylethyl}-N-(3-chloro-4-fluorophenyl)-1-(4-fluorophenyl)-1H-imidazole-2-carboxamide], for which the pEC50 was 5.00 to 6.00.

Regarding `COc1c(Cl)cc(C(C)(C)c2cnc(SCc3ccc(S(N)(=O)=O)cc3F)n2-c2ccc(F)cc2)cc1Cl` [4-({[5-{1-[3,5-dichloro-4-(methyloxy)phenyl]-1-methylethyl}-1-(4-fluorophenyl)-1H-imidazol-2-yl]thio}methyl)-3-fluorobenzenesulfonamide], the pEC50 was over 7.00.

For `CCOC(=O)c1cc(F)c(CSc2nc(C)c(C(C)(C)c3ccc(Cl)c(OC)c3)n2-c2ccc(F)cc2)c(Cl)c1` [ethyl 3-chloro-4-({[5-{1-[4-chloro-3-(methyloxy)phenyl]-1-methylethyl}-1-(4-fluorophenyl)-4-methyl-1H-imidazol-2-yl]thio}methyl)-5-fluorobenzoate], the pEC50 is 6.00 to 7.00.

As for `CC(C)(c1ccc(Cl)c(Cl)c1)c1c(-c2ccccc2)nc(SCc2c(F)cccc2Cl)n1-c1ccc(F)cc1` [2-{[(2-chloro-6-fluorophenyl)methyl]thio}-5-[1-(3,4-dichlorophenyl)-1-methylethyl]-1-(4-fluorophenyl)-4-phenyl-1H-imidazole], the pEC50 is 5.00 to 6.00.

For `CC(C)(c1ccc(Cl)c(Cl)c1)c1cnc(SCc2ccc(Cl)cc2C(=O)O)n1-c1ccc(F)cc1` [5-chloro-2-[({5-[1-(3,4-dichlorophenyl)-1-methylethyl]-1-(4-fluorophenyl)-1H-imidazol-2-yl}thio)methyl]benzoic acid], the pEC50 was 6.00 to 7.00.

On to `CC(C)(c1ccc(Cl)c(Cl)c1)c1cnc(SCc2c(F)cccc2C(=O)O)n1-c1ccc(F)cc1` [2-[({5-[1-(3,4-dichlorophenyl)-1-methylethyl]-1-(4-fluorophenyl)-1H-imidazol-2-yl}thio)methyl]-3-fluorobenzoic acid], for which the pEC50 was 6.00 to 7.00.

Regarding `CC(C)(c1ccc(Cl)c(Cl)c1)c1cnc(SCc2c(F)cccc2Cl)n1C1CCCC1` [2-{[(2-chloro-6-fluorophenyl)methyl]thio}-1-cyclopentyl-5-[1-(3,4-dichlorophenyl)-1-methylethyl]-1H-imidazole], the pEC50 was 5.00 to 6.00.

As to `CC(C)(c1ccc(Cl)c(Cl)c1)c1cnc(SCc2ccc(F)c(C(=O)NCCc3c[nH]cn3)c2)n1-c1ccc(F)cc1` [5-[({5-[1-(3,4-dichlorophenyl)-1-methylethyl]-1-(4-fluorophenyl)-1H-imidazol-2-yl}thio)methyl]-2-fluoro-N-[2-(1H-imidazol-4-yl)ethyl]benzamide], the pEC50 was 6.00 to 7.00.

Regarding `CC(C)(c1ccc(Cl)c(Cl)c1)c1cnc(SCc2ccc(C#N)cc2Cl)n1-c1ccc(F)cc1` [3-chloro-4-[({5-[1-(3,4-dichlorophenyl)-1-methylethyl]-1-(4-fluorophenyl)-1H-imidazol-2-yl}thio)methyl]benzonitrile], the pEC50 was 6.00 to 7.00.

In the case of `CC(C)(c1ccc(S(C)(=O)=O)cc1)c1cnc(SCc2ccc(S(=O)(=O)NC(=O)NN3CCCC3)cc2Cl)n1-c1ccc(F)cn1` [3-chloro-4-({[1-(5-fluoropyridin-2-yl)-5-{1-methyl-1-[4-(methylsulfonyl)phenyl]ethyl}-1H-imidazol-2-yl]thio}methyl)-N-[(pyrrolidin-1-ylamino)carbonyl]benzenesulfonamide], the pEC50 was 5.00 to 6.00.

In the case of `CC(C)(O)CNC(=O)c1cc(CSc2ncc(C(C)(C)c3ccc(Cl)c(Cl)c3)n2-c2ccc(F)cc2)ccc1F` [5-[({5-[1-(3,4-dichlorophenyl)-1-methylethyl]-1-(4-fluorophenyl)-1H-imidazol-2-yl}thio)methyl]-2-fluoro-N-(2-hydroxy-2-methylpropyl)benzamide], the pEC50 is 6.00 to 7.00.

As for `COCCNC(=O)c1cc(CSc2ncc(C(C)(C)c3ccc(Cl)c(Cl)c3)n2-c2ccc(F)cc2)ccc1F` [5-[({5-[1-(3,4-dichlorophenyl)-1-methylethyl]-1-(4-fluorophenyl)-1H-imidazol-2-yl}thio)methyl]-2-fluoro-N-[2-(methyloxy)ethyl]benzamide], the pEC50 is 6.00 to 7.00.

In the case of `CC(C)(c1ccc(Cl)c(Cl)c1)c1cnc(COc2ccnc3ccccc23)n1-c1ccc(F)cc1` [4-[({5-[1-(3,4-dichlorophenyl)-1-methylethyl]-1-(4-fluorophenyl)-1H-imidazol-2-yl}methyl)oxy]quinoline], the pEC50 was 5.00 to 6.00.

For `CC(C)(c1ccc(S(C)(=O)=O)cc1)c1cnc(SCc2c(F)cc(C(=O)O)cc2F)n1-c1ccc(F)c(F)c1` [4-({[1-(3,4-difluorophenyl)-5-{1-methyl-1-[4-(methylsulfonyl)phenyl]ethyl}-1H-imidazol-2-yl]thio}methyl)-3,5-difluorobenzoic acid], the pEC50 was 5.00 to 6.00.

Take `CC(C)(c1ccc(Cl)c(Cl)c1)c1cnc(SCc2ccc(F)c(NC(=N)N)c2)n1-c1ccc(F)cc1` [1-{5-[({5-[1-(3,4-dichlorophenyl)-1-methylethyl]-1-(4-fluorophenyl)-1H-imidazol-2-yl}thio)methyl]-2-fluorophenyl}guanidine]: the pEC50 was 6.00 to 7.00.

Consider `CC(C)(c1ccc(Cl)c(Cl)c1)c1cnc(COCc2ccc(F)cc2Cl)n1-c1ccc(F)cc1` [2-({[(2-chloro-4-fluorophenyl)methyl]oxy}methyl)-5-[1-(3,4-dichlorophenyl)-1-methylethyl]-1-(4-fluorophenyl)-1H-imidazole], for which the pEC50 is 5.00 to 6.00.

Turning to `CC(C)(C(=O)O)c1cc(CSc2ncc(C(C)(C)c3ccc(Cl)c(Cl)c3)n2-c2ccc(F)cc2)ccc1F` [2-{5-[({5-[1-(3,4-dichlorophenyl)-1-methylethyl]-1-(4-fluorophenyl)-1H-imidazol-2-yl}thio)methyl]-2-fluorophenyl}-2-methylpropanoic acid], the pEC50 is 5.00 to 6.00.

`COc1ccc(C(C)(C)c2cnc(SCc3ccc(F)c(C(=O)O)c3)n2-c2ccc(F)cc2)cc1Cl` [5-({[5-{1-[3-chloro-4-(methyloxy)phenyl]-1-methylethyl}-1-(4-fluorophenyl)-1H-imidazol-2-yl]thio}methyl)-2-fluorobenzoic acid]: the pEC50 is 6.00 to 7.00.
